Reference: patent US11168087B2, “Substituted imidazo[1,2-b]pyridazines, substituted imidazo[1,5-b]pyridazines, related compounds, and their use in the treatment of medical disorders” (BIAL—R&D Investments, S.A., priority 2016, dated 2021)

Target: T1, glucocerebrosidase (Gcase) (Homo sapiens, UniProt P04062)
T1 construct: micellar solution containing 10 nM GCase and 100 nM saposin C
T1 sequence (P04062 40-536): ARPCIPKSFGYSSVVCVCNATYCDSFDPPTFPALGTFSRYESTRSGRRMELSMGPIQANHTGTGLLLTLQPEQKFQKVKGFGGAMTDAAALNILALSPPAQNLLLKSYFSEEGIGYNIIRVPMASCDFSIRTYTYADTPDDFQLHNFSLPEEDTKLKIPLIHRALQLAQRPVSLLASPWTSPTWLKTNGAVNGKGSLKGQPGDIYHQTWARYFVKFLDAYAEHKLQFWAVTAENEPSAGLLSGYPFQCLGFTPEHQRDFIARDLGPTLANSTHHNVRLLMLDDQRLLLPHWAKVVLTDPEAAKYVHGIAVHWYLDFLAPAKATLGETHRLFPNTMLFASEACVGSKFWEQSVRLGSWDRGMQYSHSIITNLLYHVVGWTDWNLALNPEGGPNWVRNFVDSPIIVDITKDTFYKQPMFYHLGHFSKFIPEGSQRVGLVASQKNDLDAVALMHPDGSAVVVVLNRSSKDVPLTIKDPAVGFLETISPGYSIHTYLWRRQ
Experiment: Glucocerebrosidase (Gcase) activation assay, 4-methylumbelliferyl-beta-D-glucopyranoside substrate, with saposin C
Type: biochemical
Details: 0.25 h; for activation at 0.1 µM: read-out: Percent Gcase Activation 0.1 μM Test Compound; for activation at 1 µM: read-out: Percent Gcase Activation 1 μM Test Compound
Method: The ability of exemplary compounds to activate glucocerebrosidase (Gcase) was measured.
A 484 μL aliquot of a 1.0 mg/mL solution of phosphatidylserine (PS) (Sigma P7769) in chloroform was evaporated under a stream of nitrogen for 1 hour. The lipid film was dissolved over 4 minutes of vigorous vortexing in 40 mL of 176 mM K2HPO4/50 mM citric acid (pH 4.7) containing 7.5 μL of triton X-100, resulting in a mixed micellar preparation with a composition of 0.32 mM triton and 0.37 mol % PS. 4-Methylumbelliferyl-beta-D-glucopyranoside (ACROS-337025000) was dissolved in the micellar solution to a final concentration of 2 mM for use as the reaction substrate.
Test compounds were diluted to the desired concentrations with dimethylsulfoxide (DMSO) from 10 mM stocks, and 0.41 μL of the DMSO compound mixture was added to 100 μL of micellar solution containing 10 nM GCase and 100 nM saposin C (Enzo ALX-201-262-C050). Pre-incubation was allowed to occur for 30 minutes at room temperature, after which the reaction was initiated by combining 25 μL of substrate solution with 25 μL of compound/GCase/saposin mixture. The reaction proceeded for 15 minutes at room temperature and was stopped by adding 150 μL of 1M glycine, pH 12.5. The endpoint of the reaction was monitored by measuring fluorescence intensity (excitation: 365 nm; emission: 440 nm) on a SpectraMax i3 instrument (Molecular Devices). Test compounds were screened at 1.0 and 0.1 μM final concentration, and subsequent 8-point dose response curves were obtained using 3-fold dilutions from a maximum final concentration of 5 μM.
The symbol “+” indicates less than 5% Gcase activation; the symbol “++” indicates Gcase activation in the range of 5% up to 20%; and the symbol “+++” indicates Gcase activation greater than 20%.

activation at 0.1 µM [%]	activation at 1 µM [%]	Compound
> 20	> 20	Cc1cc(C)c2occ(C(=O)NC3CCCc4ccccc43)c2n1 (stereo not shown) [5,7-Dimethyl-N-(1,2,3,4-tetrahydronaphthalen-1-yl)furo[3,2-b]pyridine-3-carboxamide]
> 20	> 20	Cc1cc(-c2cccc(F)c2)nn2c(C(=O)NC(C)(C)C3CC3)cnc12
5 to 20	> 20	Cc1cc(-c2cccc(F)c2)nn2c(C(=O)NC(C)C(F)(F)F)ncc12 (stereo not shown)
5 to 20	> 20	Cc1cc(-c2cc(F)ccc2C#N)nn2c(C(=O)N[C@@H](C)C3CC3)cnc12 [(S)-6-(2-Cyano-5-fluorophenyl)-N-(1-cyclopropylethyl)-8-methylimidazo[1,2-b]pyridazine-3-carboxamide]
> 20	> 20	Cc1cc(C)c2scc(C(=O)NC(C)(C)C3CC3)c2n1
> 20	> 20	COc1cccc(-c2cc(C)c3ncc(C(=O)NC(C4CC4)C4CC4)n3n2)c1
> 20	> 20	Cc1cc(C#N)c(-c2cc(C)c3ncc(C(=O)N[C@@H](C)C4CC4)n3n2)o1 [(S)-6-(3-Cyano-5-methylfuran-2-yl)-N-(1-cyclopropylethyl)-8-methylimidazo[1,2-b]pyridazine-3-carboxamide]
5 to 20	> 20	Cc1cc(-c2ccc(F)cc2C#N)nn2c(C(=O)N[C@@H](C)C3CC3)ncc12 [(S)-2-(2-Cyano-4-fluorophenyl)-N-(1-cyclopropylethyl)-4-methylimidazo[1,5-b]pyridazine-7-carboxamide]
5 to 20	> 20	CCCCCCOC1CCC(NC(=O)c2cnc3c(C)cc(Cl)nn23)CC1 (stereo not shown)
5 to 20	> 20	Cc1cc(-c2cccc(Cl)n2)nn2c(C(=O)NC(C)C(F)(F)F)cnc12 (stereo not shown)
5 to 20	> 20	Cc1cc(-c2cncc(F)c2)nn2c(C(=O)NC(C3CC3)C(F)(F)F)cnc12 (stereo not shown)
> 20	> 20	Cc1cc(-c2cccc(F)c2C#N)nn2c(C(=O)N[C@@H](C)C3CC3)cnc12 [(S)-6-(2-Cyano-3-fluorophenyl)-N-(1-cyclopropylethyl)-8-methylimidazo[1,2-b]pyridazine-3-carboxamide]
5 to 20	> 20	Cc1cc(C)c2ncc(C(=O)NC3CCCc4ccccc43)n2n1 (stereo not shown)
5 to 20	> 20	CCCCCO[C@H]1CC[C@H](NC(=O)c2cnc3c(C)cc(C)nn23)CC1
< 5	< 5	Cc1cc(-c2ccc(F)cc2)nn2c(C(=O)N[C@@H](C)C3CC3)nnc12
5 to 20	> 20	Cc1cc(-c2ccccc2C#N)nn2c(C(=O)NC(C3CC3)C(F)(F)F)cnc12 (stereo not shown)
> 20	> 20	Cc1cc(C)c2cnc(C(=O)Nc3ccc4c(c3)CCC4)n2n1
5 to 20	> 20	Cc1cc(-c2ccc(F)cc2C#N)nn2c(C(=O)NC(C3CC3)C(F)(F)F)cnc12 (stereo not shown)
> 20	> 20	CCCCCO[C@H]1CC[C@H](NC(=O)c2nsc3c(C)cc(C)nc23)CC1 [5,7-Dimethyl-N-((1R,4R)-4-(pentyloxy)cyclohexyl)isothiazolo[4,5-b]pyridine-3-carboxamide]
> 20	> 20	Cc1cc(-c2cccnc2)nc2c(C(=O)NC(C)C3CC3)csc12 (stereo not shown)
5 to 20	> 20	CCCCCO[C@H]1CC[C@H](NC(=O)c2coc3c(C)cc(C)nc23)CC1 [5,7-Dimethyl-N-((1R,4R)-4-(pentyloxy)cyclohexyl)furo[3,2-b]pyridine-3-carboxamide]
5 to 20	> 20	Cc1cc(-c2ccc(C(N)=O)o2)nn2c(C(=O)N[C@@H](C3CC3)C(F)(F)F)ncc12
5 to 20	> 20	Cc1cc(-c2cccnc2F)nn2c(C(=O)NC(C3CC3)C(F)(F)F)cnc12 (stereo not shown)
< 5	5 to 20	Cc1cc(C)c2ncc(C(=O)N[C@@H](C)C3CC3)n2n1

activation at 0.1 µM [%]	activation at 1 µM [%]	Compound
> 20	> 20	Cc1cc(-c2cccc(C#N)c2)nn2c(C(=O)NC(C3CC3)C(F)(F)F)cnc12 (stereo not shown)
< 5	5 to 20	O=C(Nc1ccc2c(c1)CCC2)c1cnc2ccc(Cl)nn12
< 5	> 20	Cc1cc(C)c2ncc(C(=O)Nc3ccc(-c4cocn4)cc3)n2n1
5 to 20	> 20	Cc1cc(C)c2onc(C(=O)NC(C)(C)C3CC3)c2n1 [N-(2-Cyclopropylpropan-2-yl)-5,7-dimethylisoxazolo[4,5-b]pyridine-3-carboxamide]
> 20	> 20	Cc1cc(N2CCCC(F)(F)C2)nn2c(C(=O)N[C@@H](C3CC3)C(F)(F)F)cnc12
5 to 20	> 20	Cc1cc(C)c2ncc(C(=O)NC(C)(C)C3CC3)n2n1
5 to 20	> 20	Cc1cc(C)c2occ(C(=O)Nc3ccc4c(c3)CCC4)c2n1 [N-(2,3-Dihydro-1H-inden-5-yl)-5,7-dimethylfuro[3,2-b]pyridine-3-carboxamide]
> 20	> 20	Cc1cc(-c2ccc3ocnc3c2)nn2c(C(=O)NC(C)C(F)(F)F)cnc12 (stereo not shown)
> 20	> 20	Cc1cc(-c2ccc(C#N)o2)nn2c(C(=O)N[C@@H](C3CC3)C(F)(F)F)ncc12
5 to 20	> 20	Cc1cc(Cl)nn2c(C(=O)Nc3ccc4c(c3)CCC4)cnc12
5 to 20	> 20	Cc1nc2cc(-c3cc(C)c4ncc(C(=O)NC(C)C(F)(F)F)n4n3)ccc2o1 (stereo not shown)
< 5	5 to 20	CCC(NC(=O)c1cnc2cc(C)c(Cl)nn12)c1ccccc1 (stereo not shown)
> 20	> 20	Cc1cc(-c2ccc(F)cc2)nn2c(C(=O)NC(C3CC3)C(F)(F)F)ncc12 (stereo not shown)
5 to 20	> 20	Cc1cc(-c2ccc3ncn(C)c3c2)nn2c(C(=O)N[C@@H](C3CC3)C(F)(F)F)cnc12 [(S)—N-(1-Cyclopropyl-2,2,2-trifluoroethyl)-8-methyl-6-(1-methyl-1H-benzo[d]imidazol-6-yl)imidazo[1,2-b]pyridazine-3-carboxamide]
< 5	< 5	CCCCCCOC1CCC(NC(=O)c2cnc3cc(C)c(Cl)nn23)CC1 (stereo not shown)
> 20	> 20	Cc1cc(C#N)c(-c2cc(C)c3ncc(C(=O)N[C@@H](C)C(F)(F)F)n3n2)o1
< 5	> 20	Cc1cc(-c2cccc3ncoc23)nn2c(C(=O)NC(C)C(F)(F)F)cnc12 (stereo not shown)
5 to 20	> 20	Cc1cc(-c2cccc(F)c2C#N)nn2c(C(=O)N[C@@H](C)C(F)(F)F)cnc12 [(S)-6-(2-Cyano-3-fluorophenyl)-8-methyl-N-(1,1,1-trifluoropropan-2-yl)imidazo[1,2-b]pyridazine-3-carboxamide]
5 to 20	> 20	Cc1cc(-c2ccc3c(c2)ncn3C)nn2c(C(=O)N[C@@H](C3CC3)C(F)(F)F)cnc12
> 20	> 20	Cc1cc(-c2ccc(F)cc2C#N)nn2c(C(=O)N[C@@H](C3CC3)C(F)(F)F)cnc12
5 to 20	> 20	Cc1cc(C)c2ncc(C(=O)Nc3ccc4c(c3)CCC4)n2n1
5 to 20	> 20	Cc1cc(-c2cc(C)c3cnc(C(=O)N[C@@H](C4CC4)C(F)(F)F)n3n2)sn1 [(S)—N-(1-Cyclopropyl-2,2,2-trifluoroethyl)-4-methyl-2-(3-methylisothiazol-5-yl)imidazo[1,5-b]pyridazine-7-carboxamide]
< 5	5 to 20	Cc1cc(-c2cccnc2)nc2c(C(=O)NC(C3CC3)C(F)(F)F)nsc12 (stereo not shown)
